Reference: patent US20100104661A1, “DISCONTINUOUS METHODS OF TREATING CANCER” (priority 2006, published 2010)

What was measured:
[1] = test system: node-positive breast cancer; details: adjuvant, sequentially to doxorubicin-containing chemotherapy; total population of patients with receptor-positive and receptor-negative tumors; cited from earlier work
[2] = test system: AIDS-related Kaposi's sarcoma; details: 135 mg/m^2 every 3 weeks versus 100 mg/m^2 every 2 weeks; cited from earlier work
[3] = test system: 22Rv1 prostate tumor xenografts; assay: 22Rv1 prostate tumor xenograft, first experiment (lonafarnib 3.5 days on/3.5 days off, docetaxel once weekly); assay type: in vivo, male athymic nude mice; details: single-agent docetaxel 20 mpk i.p. once weekly; after 3 weeks (21 days)
Description: (§1) Intermittent dosing of lonafarnib at 60 mpk BID around the administration of docetaxel was tested in two experiments using the 22Rv1 androgen-independent prostate cancer xenograft model. In both experiments 22Rv1 prostate tumor xenografts were grown in male athymic nude mice. When tumor volumes were approximately 100 mm^3, the animals were randomized (n=10 per treatment group) for grouping. […] In addition, tumor regressions were observed when intermittent lonafarnib was combined with docetaxel.
In the first experiment (see FIG. 1) male mice (n=10 per treatment group) bearing 22Rv1 tumor xenografts were treated with lonafarnib administered at either 30 mpk BID continuously or 60 mpk BID intermittently (3.5 days on/3.5 days off). Docetaxel was administered at 20 mpk once weekly after the fourth dose of lonafarnib. Tumor volumes were measured twice weekly. After 3 weeks (21 days) of treatment, single-agent docetaxel inhibited 22Rv1 tumor growth by 66%. Continuous treatment with single-agent lonafarnib at 30 mpk BID inhibited tumor growth by 85% and intermittent dosing of single-agent lonafarnib at 60 mpk BID inhibited tumor growth by 80%. When combined with weekly administration of docetaxel, continuous treatment with 30 mpk BID lonafarnib caused 22Rv1 tumors to regress by 23%. However, when combined with docetaxel, intermittent lonafarnib (60 mpk BID) caused the tumors to regress by 46%. […]

[4] = test system: 22Rv1 prostate tumor xenografts; assay: 22Rv1 prostate tumor xenograft, second experiment (lonafarnib 5 days on/5 days off, docetaxel once every 10 days); assay type: in vivo, male athymic nude mice; details: single-agent docetaxel 20 mpk i.p. once every 10 days; after 24 days
Description: as §1
The second experiment (see FIG. 3) was also performed with male mice (n=10 per treatment group) bearing 22Rv1 prostate tumor xenografts that were approximately 100 mm^3 in volume. Lonafarnib was administered at 30 mpk BID continuously or 60 mpk BID intermittently (5 days on/5 days off). Docetaxel was administered at 20 mpk once every 10 days after the second dose of lonafarnib. After 24 days of treatment, single-agent docetaxel inhibited 22Rv1 tumor growth by 78%. Continuous treatment with single-agent lonafarnib at 30 mpk BID inhibited tumor growth by 68% and intermittent dosing of single-agent lonafarnib at 60 mpk BID inhibited tumor growth by 78%. When combined with docetaxel, continuous treatment with 30 mpk BID lonafarnib caused 22Rv1 tumors to regress by 10%. However, when combined with docetaxel, intermittent lonafarnib (60 mpk BID) caused the tumors to regress by 37%. […]

NSCLC = details: 100 mg/m^2 in patients previously treated with chemotherapy; cited from earlier work

Structure (SMILES)	effect on disease-free and overall survival [1]	toxicity of dosing schedules [2]	inhibition of 22Rv1 tumor growth [3]	inhibition of 22Rv1 tumor growth [4]	toxicity at higher dose (NSCLC)
CC(=O)O[C@H]1C(=O)[C@@]2(C)[C@H]([C@H](OC(=O)c3ccccc3)[C@]3(O)C[C@H](OC(=O)[C@H](O)[C@@H](NC(=O)c4ccccc4)c4ccccc4)C(C)=C1C3(C)C)[C@]1(OC(C)=O)CO[C@@H]1C[C@@H]2O [Taxol, paclitaxel]	overall favorable effect on disease-free and overall survival	more toxic than the latter	–	–	–
CC(=O)O[C@@]12CO[C@@H]1C[C@H](O)[C@@]1(C)C(=O)[C@H](O)C3=C(C)[C@@H](OC(=O)[C@H](O)[C@@H](NC(=O)OC(C)(C)C)c4ccccc4)C[C@@](O)([C@@H](OC(=O)c4ccccc4)[C@H]21)C3(C)C [docetaxel]	–	–	66%	78%	associated with increased hematologic toxicity, infection, and treatment related mortality
